Results: patent publication EP4335840A1, “NEW CONTRAST AGENTS FOR USE IN DIAGNOSTIC IMAGING” (priority 2022, dated 2024)
Like-named read-outs stand apart in the source and are kept apart here.

Assays:
[1] = Complex stability (transmetallation with Zn2+, proton relaxometry); type: physicochemical; settings: 72 hours, 2.5 mM Zn2+, 26 mM phosphate buffer, 37°C, pH 7.4; 1.41 T
Protocol: The used method is described elsewhere (Laurent S et al., Stability of MRI paramagnetic contrast media: a proton relaxometric protocol for transmetallation assessment. Invest Radiol. 2001 Feb;36(2):115-22). In brief: A solution containing 2.5 mmol/L of test compound and 2.5 mmol/L ZnCl2 in 26 mM phosphate buffer (KH2PO4 Merck; 1.09439.1000, #HC748513, pH 7,00), was incubated at 37°C over a period of at least 3 days. If test compounds are instable under these conditions, transmetallation during this test would lead to the formation of the Zn^2+ complex of the test item, while Gd^3+ is released and precipitated as highly insoluble GdPO4.
After 3d of incubation T1 relaxation time was observed. […] Table 2: Transmetallation stability [%] of paramagnetic contrast agents over 72 hours (2.5 mM Zn2+, 26 mM phosphate buffer, 37°C, pH 7.4).

[2] = 1.5 T, 37°C, from Rohrer et al., cited from earlier work; for r1 bovine plasma: bovine plasma instead of human plasma
[3] = target: T1, OATP1B1 (Homo sapiens, UniProt Q9Y6L6); assay: Uptake into stable transfected OATP1B1 HEK 293 cells; type: cell-based
T1 sequence (Q9Y6L6 1-691): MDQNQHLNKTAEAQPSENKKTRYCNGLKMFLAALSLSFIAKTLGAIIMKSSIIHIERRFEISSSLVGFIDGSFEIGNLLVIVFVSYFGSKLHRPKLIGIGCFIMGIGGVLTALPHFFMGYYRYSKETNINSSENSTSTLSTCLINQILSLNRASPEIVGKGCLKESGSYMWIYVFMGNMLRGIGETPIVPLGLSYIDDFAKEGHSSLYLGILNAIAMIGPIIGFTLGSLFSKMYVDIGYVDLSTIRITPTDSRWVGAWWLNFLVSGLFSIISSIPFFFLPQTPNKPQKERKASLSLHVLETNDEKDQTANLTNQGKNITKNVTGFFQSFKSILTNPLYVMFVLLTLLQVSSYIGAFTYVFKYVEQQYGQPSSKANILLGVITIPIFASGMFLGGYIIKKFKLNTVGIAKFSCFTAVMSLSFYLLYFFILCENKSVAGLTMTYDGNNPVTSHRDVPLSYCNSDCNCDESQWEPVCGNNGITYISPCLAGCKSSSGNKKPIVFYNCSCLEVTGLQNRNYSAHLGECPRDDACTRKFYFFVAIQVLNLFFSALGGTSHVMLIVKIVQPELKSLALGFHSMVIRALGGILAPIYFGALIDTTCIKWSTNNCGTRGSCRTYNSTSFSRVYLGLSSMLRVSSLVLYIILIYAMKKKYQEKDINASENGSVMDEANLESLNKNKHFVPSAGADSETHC

[4] = Water solubility in aqueous buffer; type: physicochemical
Protocol: The exploratory water solubility of the compounds is determined at room temperature (20°C) in 0.5 mL buffer solution (10 mM Tris-HCI, pH 7.4) in the microcentrifuge tubes (Eppendorf, 2.0 mL safe-lock caps). The solid compounds were added stepwise to the buffer solution. More substance is added once all the suspended material is dissolved until an equilibrium between undissolved and dissolved substance is reached. The suspension was mixed using a shaker (Heidolph Reax 2000) and treated 5 min in an ultrasound bath (Bandelin, Sonorex Super RK255H). The Gadolinium concentration of the test substance in the clear solution is measured by ICP-MS. Table 1: Solubilities of compounds in aqueous buffer at 20°C (pH 7.4).

[5] = target: T2, OATP1B3 (Homo sapiens, UniProt Q9NPD5); assay: Uptake into stable transfected OATP1B3 HEK 293 cells; type: cell-based
T2 sequence (Q9NPD5 1-702): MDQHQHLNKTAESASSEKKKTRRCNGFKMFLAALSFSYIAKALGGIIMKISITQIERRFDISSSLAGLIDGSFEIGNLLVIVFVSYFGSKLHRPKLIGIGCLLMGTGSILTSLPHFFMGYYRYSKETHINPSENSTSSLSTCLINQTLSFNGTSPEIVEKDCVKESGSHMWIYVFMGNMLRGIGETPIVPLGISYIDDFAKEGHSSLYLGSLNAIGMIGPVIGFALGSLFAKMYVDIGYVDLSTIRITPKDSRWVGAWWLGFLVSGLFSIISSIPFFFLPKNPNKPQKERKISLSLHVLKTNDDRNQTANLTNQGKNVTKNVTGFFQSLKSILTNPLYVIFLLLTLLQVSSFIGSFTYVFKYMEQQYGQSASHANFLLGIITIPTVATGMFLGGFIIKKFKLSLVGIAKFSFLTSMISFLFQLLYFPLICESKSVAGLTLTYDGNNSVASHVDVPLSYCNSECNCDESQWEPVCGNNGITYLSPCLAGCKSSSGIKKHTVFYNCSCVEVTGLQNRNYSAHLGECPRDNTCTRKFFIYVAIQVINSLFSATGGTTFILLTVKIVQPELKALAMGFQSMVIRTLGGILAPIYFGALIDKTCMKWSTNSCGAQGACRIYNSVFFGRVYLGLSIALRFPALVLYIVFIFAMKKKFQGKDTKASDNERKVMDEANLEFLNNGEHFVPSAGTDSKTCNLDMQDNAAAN

[6] = Relaxivity measurements at 1.41 T in water and human plasma; type: physicochemical; settings: 37°C, normalized to Gd
Protocol: Relaxivity measurements at 1.41 T were performed using a MiniSpec mq60 spectrometer (Bruker Analytik, Karlsruhe, Germany) operating at a resonance frequency of 60 MHz and a temperature of 37°C. The T1 relaxation times were determined using the standard inversion recovery (IR) method with a fixed relaxation delay of at least 5 × T1. The variable inversion time (TI) was calculated automatically by the standard software of the MiniSpec mq60 (8 steps). The T2 measurements were performed by using a Carr-Purcell-Meiboom-Gill (CPMG) pulse sequence, applying a relaxation delay of at least 5 × T1.
Each relaxivity measurement was performed using three different Gd concentrations (3 concentrations between 0.05 and 2 mM). The T1 and T2 relaxation times of the example compounds 1 to 10 were measured in different media for example in water and human plasma. Human plasma preparation: For each experiment fresh blood was taken from a volunteer using 10 mL citrate-tubes (Sarstedt S-Monovette 02.1067.001, 10 mL, Citrate). The 10 mL citrate-tubes were carefully inverted 10 times to mix blood and anticoagulant and centrifuged for 15min at 1811 g at RT (Eppendorf, Centrifuge 5810R).
The relaxivities ri (where i=1, 2) were calculated based on the measured relaxation rates Ri in water and plasma: ri = (Ri−Ri(0))/CGd [formula] where Ri(0) represent the relaxation rate of the respective solvent and CGd the concentration of the compound normalized to the Gadolinium. The Gadolinium concentrations of the investigated solutions were verified by Inductively Coupled Plasma Mass Spectrometry (ICP-MS Agilent 7500a, Waldbronn, Germany). Table 3: Relaxivities of investigated compounds in water and human plasma at 1.41 T and relaxivities of Reference compounds 1-3 (RC1-RC3) at 1.5 T in water and bovine plasma. All values are measured at 37°C and normalized to Gd and given in L mmol-1 s-1.

[7] = system: freshly isolated rat hepatocytes; assay: Uptake into freshly isolated rat hepatocytes; settings: rat hepatocyte uptake with OATP1B1/1B3 inhibitor Rifampicine, test item and inhibitor each 100 µM
Protocol: The rat hepatocytes were incubated (2.5 ·10^5 cells/well) for 2.5 to 4h in collagen coated 24-well plates (Fa. Beckton Dickinson Biocoat, cell environments, Collagen I Cellware) in Williams E-medium (Fa. Sigma W1878) in an incubator (37°C, 5% CO2 and 95% oxygen). After incubation the adherent hepatocytes were washed once with 37°C Hepes carbonate transport buffer (500 µL/well). The test items and RC1 were prepared from stock solutions (180 to 500 mM concentration) in Hepes carbonate transport buffer at pH 7.4 to reach a final concentration of 100 µmοl Gd/L. The specific uptake of the test item or RC1 into rat hepatocytes via OATP1 B1 and OATP1 B3 was challenged using a known OATP1B1/1B3 inhibitor (Rifampicine, Fa. Sigma R3501, test item and inhibitor 1:1 each 100 µM final concentration). The prepared rat hepatocyte plates were incubated with test solutions (500 µL/well) at 37°C for 10 min using a thermoshaker (Fa. Grant Bio, PHMP). Triplicates were performed for each test item. After incubating the cells were washed once with cold PBS buffer (Fa. Gibco, Dulbeccos PBS (+)). After washing the intact hepatocytes were lysed by addition of 500 µL cold 0.01 % Triton-X 100 in Millipore water for 1h. […] After 1h 500 µL of 10 nM Terbium ICP-MS standard was added in 2% nitric acid and 0.01% Triton 100 before the Gadolinium concentrations in the lysate were measured using ICP-MS (Agilent 8900, singleQuad, integr. Time 0.3 s, no gas, 5 replicates, Gd m/z 157, Tb m/z 159). As a reference standard RC1 is used in the same well plate. The hepatocyte uptake of the test compound is calculated relative to RC1 (resulting in the unit % of RC1).

[8] = No-observed-adverse-effect level (NOAEL), intravenous bolus; settings: mice, intravenous bolus via tail vein, dose levels up to 2.5 mmol Gd/kg bw
[9] = in vivo; cited from earlier work
[10] = OATP1B1-HEK 293 cell uptake with Rifampicine
[11] = aqueous buffer 10 mM Tris-HCl, pH 7.4, 20°C, Gd by ICP-MS
[12] = OATP1B3-HEK 293 cell uptake with Rifampicine

For O=C([O-])CN1CCN(CC(=O)[O-])CCN([C@H](CO)[C@H](O)CO)CCN(CC(=O)[O-])CC1.[Gd+3] (racemic) [RC3, gadobutrol], which “Stability (transmetallation stability, T1 relaxation rates R1n/R10)” value (“Stability” for short) [1] is on record?
The value was “stable”.

And the r1 bovine plasma [2]?
The r1 bovine plasma was 5.2 L/mmol/s.

And the r1 water [2]?
Its r1 water is 3.3 L/mmol/s.

With COCCOCCOCCOc1ccc(C[C@H]2CN(CC(=O)[O-])CCN(CC(=O)[O-])CCN(CC(=O)O)CCN2CC(=O)[O-])cc1.[Gd+3] [Example 1, Gadolinium-2,2',2"-[(2S)-10-(carboxymethyl)-2-(4-{2-[2-(2-methoxyethoxy)-ethoxy]ethoxy}benzyl)-1,4,7,10-tetraazacyclododecane-1,4,7-triyl]triacetate] as the compound, how does the “Inhibition Rifampicine” value [3, 10] read?
The value was 21 % inhibition.

And the Solubility [4, 11]?
The Solubility was greater than 201 mM.

And the “Inhibition Rifampicine” value [5, 12]?
Its value is 92 % inhibition.

What about the r1 human plasma [6] of the same compound?
The r1 human plasma was 6.6 L/mmol/s.

And the r1 water [6]?
Its r1 water is 5.1 L/mmol/s.

What about the “Inhibition Rifampicine” value [7] of the same compound?
Its value is 90 % inhibition.

For CCOCCOCCOc1ccc(C[C@H]2CN(CC(=O)[O-])CCN(CC(=O)[O-])CCN(CC(=O)O)CCN2CC(=O)[O-])cc1.[Gd+3] [Example 2, Gadolinium-2,2',2"-[(2S)-10-(carboxymethyl)-2-{4-[2-(2-ethoxyethoxy)ethoxy]benzyl}-1,4,7,10-tetraazacyclododecane-1,4,7-triyl]triacetate], which “Inhibition Rifampicine” value [3, 10] is on record?
The value was 0 % inhibition.

What about the Solubility [4, 11] of the same compound?
The Solubility was greater than 55 mM.

What about the “Inhibition Rifampicine” value [5, 12] of the same compound?
The value was 86 % inhibition.

What about the r1 human plasma [6] of the same compound?
The r1 human plasma was 5.9 L/mmol/s.

And the r1 water [6]?
The r1 water was 4.9 L/mmol/s.

And the “Inhibition Rifampicine” value [7]?
Its value is 93 % inhibition.

And the “Stability” value [1]?
Its value is 95%.

For COCCOCCOCCOc1ccc(C[C@@H]2CN(CC(=O)[O-])CCN(CC(=O)[O-])CCN(CC(=O)O)CCN2CC(=O)[O-])cc1.[Gd+3] [Example 3, Gadolinium-2,2',2"-[(2R)-10-(carboxymethyl)-2-(4-(2-[2-(2-methoxyethoxy)ethoxy]ethoxy}benzyl)-1,4,7,10-tetraazacyclododecane-1,4,7-triyl]triacetate], which “Inhibition Rifampicine” value [3, 10] is on record?
The value was 31 % inhibition.

What about the Solubility [4, 11] of the same compound?
Its Solubility is greater than 166 mM.

And the “Inhibition Rifampicine” value [5, 12]?
Its value is 84 % inhibition.

And the r1 human plasma [6]?
Its r1 human plasma is 6.8 L/mmol/s.

And the r1 water [6]?
The r1 water was 5.0 L/mmol/s.

What about the “Inhibition Rifampicine” value [7] of the same compound?
Its value is 83 % inhibition.

For CCOCCOc1ccc(C[C@H]2CN(CC(=O)[O-])CCN(CC(=O)[O-])CCN(CC(=O)O)CCN2CC(=O)[O-])cc1.[Gd+3] [Example 4], which “Inhibition Rifampicine” value [3, 10] is on record?
The value was 29 % inhibition.

And the Solubility [4, 11]?
Its Solubility is greater than 738 mM.

What about the “Inhibition Rifampicine” value [5, 12] of the same compound?
Its value is 97 % inhibition.

And the NOAEL [8]?
The NOAEL was 2.50 mmol Gd/kg bw.

And the r1 human plasma [6]?
Its r1 human plasma is 6.6 L/mmol/s.

What about the r1 water [6] of the same compound?
The r1 water was 4.8 L/mmol/s.

And the “Inhibition Rifampicine” value [7]?
Its value is 94 % inhibition.

Which “Inhibition Rifampicine” value [3, 10] does the source give for CCOCCOCCOCCOc1ccc(C[C@H]2CN(CC(=O)[O-])CCN(CC(=O)[O-])CCN(CC(=O)O)CCN2CC(=O)[O-])cc1.[Gd+3] [Example 5, Gadolinium-2,2',2"-[(2S)-10-(carboxymethyl)-2-(4-{2-[2-(2-ethoxyethoxy)ethoxy]ethoxy}benzyl)-1,4,7,10-tetraazacyclododecane-1,4,7-triyl]triacetate] here?
The value was 41 % inhibition.

What about the Solubility [4, 11] of the same compound?
The Solubility was greater than 284 mM.

What about the “Inhibition Rifampicine” value [5, 12] of the same compound?
Its value is 96 % inhibition.

And the r1 human plasma [6]?
The r1 human plasma was 5.7 L/mmol/s.

And the r1 water [6]?
The r1 water was 5.1 L/mmol/s.

What about the “Inhibition Rifampicine” value [7] of the same compound?
The value was 89 % inhibition.

And the “Stability” value [1]?
Its value is 96%.

Which results are given for CCOCCOCCOc1ccc(C[C@H]2CN(CC(=O)[O-])CCN(CC(=O)[O-])CCN(CC(=O)O)CCN2CC(=O)[O-])nc1.[Gd+3] [Example 6, Gadolinium 2,2',2"-[(2S)-10-(carboxymethyl)-2-({5-[2-(2-ethoxyethoxy)ethoxy]pyridin-2-yl}methyl)-1,4,7,10-tetraazacyclododecane-1,4,7-triyl]triacetate]?
Inhibition Rifampicine [3, 10]: 2 % inhibition; Inhibition Rifampicine [5, 12]: 65 % inhibition; r1 human plasma [6]: 5.9 L/mmol/s; r1 water [6]: 5.3 L/mmol/s; Inhibition Rifampicine [7]: 91 % inhibition

For CCOc1ccc(CC(CN(CCN(CC(=O)[O-])CC(=O)[O-])CC(=O)[O-])N(CC(=O)[O-])CC(=O)[O-])cc1.[Gd+3].[Na+].[Na+] (stereo not shown) [RC1, gadoxetate disodium, reference compound], which “Inhibition Rifampicine” value [3] is on record?
The value was 81 % inhibition.

What about the Solubility ([4]; pH 7.4) of the same compound?
The Solubility was greater than 250 mM.

And the “Inhibition Rifampicine” value [5]?
The value was 99 % inhibition.

What about the “excreted into the bile” value [9] of the same compound?
Its value is “up to 50 % of the administered dose”.

What about the “Inhibition Rifampicine” value [7] of the same compound?
Its value is 97 % inhibition.

What about the r1 bovine plasma [2] of the same compound?
Its r1 bovine plasma is 6.9 L/mmol/s.

What about the r1 water [2] of the same compound?
Its r1 water is 4.7 L/mmol/s.

Which “secreted into the bile” value [9] does the source give for O=C([O-])CN(CCN(CC(=O)[O-])CC(=O)[O-])CCN(CC(=O)[O-])C(COCc1ccccc1)C(=O)[O-].[Gd+3].[H+].[H+] (stereo not shown) [RC2, gadobenic acid] here?
The value was 3-to-5%.

What about the “Inhibition Rifampicine” value [7] of the same compound?
The value was 79 % inhibition.

And the r1 bovine plasma [2]?
Its r1 bovine plasma is 6.3 L/mmol/s.

What about the r1 water [2] of the same compound?
The r1 water was 4.0 L/mmol/s.
